Counter-ions that a name gives are not always drawn.

For orientation: Cmax means the highest concentration seen after dosing. By MRT is commonly meant a mean duration of stay, worked out from the concentration-time curve. In general, Tmax refers to the time from dosing to the highest level.

The data set is described as follows: In vivo pharmacokinetic study in rabbits. As to conditions: oral gavage, n = 6. Here is the method:
CTH in the samples was quantified using a CoM 6000 HPLC system (CoMetro Technology, South Plainfield, NJ, USA) with a Comatex C18-AB column (250 × 4.6 mm, 5 μm; 115 Corp, Plainfield, NJ, USA) at 238 nm. The mobile phase was 0.1 mol/L acetonitrile, 0.1 mol/L ammonium acetate, and 0.01 mol/L heptane sodium sulfonate at a ratio of 5:5:1 (v/v). The flow rate was 1.0 mL/min, and the column temperature was 25 °C. All sample solutions were degassed and the injection volume was maintained at 20 μL [44, 53]. The particular application detail on the CoM 6000 HPLC system referred to a previous introduction in our laboratory.
The rabbits were assigned to one of the following three groups: A, B, or C. The abdominal hair of the rabbits in groups B and C was shaved off with an electric hair remover, and after cleaning the skin with normal saline, the optimized TDDS was applied to the abdomens of […] in group B, and blank patches were applied to the abdomens of rabbits in group C. Group A was administered CTH by oral gavage. The oral gavage procedure involved fixing the rabbits with an animal fixator and placing a special mouth expander with a rope attached to their mouth. An elastic rubber catheter was inserted through a small round hole in the mouth expander and pushed into the esophagus along the posterior pharyngeal wall. A solution consistent with the TDDS concentration was added. After gastric perfusion, the catheter and mouth opener were removed. Next, 1 mL aliquots of blood were collected from the marginal auricular vein of the experimental animals at different time intervals (1, 2, 4, 7, 12, and 24 h), placed in heparinized tubes, and centrifuged at 1500× g for 10 min. The resulting plasma supernatant was stored at −70 °C until further analysis. HPLC analyses were carried out by transferring 200 μL of the supernatant to a 1.5 mL polyethylene centrifuge tube. The tubes were then mixed with 300 μL acetonitrile, centrifuged at 2500× g for 10 min, and filtered through a 0.22 μm membrane.
The pharmacokinetic parameters of the conventional oral and sustained-release transdermal preparations were analyzed, including the maximum plasma concentration of the drug (Cmax), the time to reach the Cmax (Tmax), the mean residence time (MRT), and the area under the plasma concentration–time curve from time 0 to t (AUC(0-t)). Two-tailed Student’s t-tests were performed for the Cmax and AUC(0-t) analyses, and a non-parametric test was performed for the Tmax analysis. The AUC(0-t) was calculated using the trapezoidal rule.

As to `CN(C)CCCC1(c2ccc(F)cc2)OCc2cc(C#N)ccc21` (stereo not shown) [CTH, citalopram hydrobromide], the “AUC(0-t)” value stood at 8460.37 ± 996.43 ng/h/mL. Moreover, where the note is “rabbit, plasma”, the peak level (Cmax) was 4900 ± 396 ng/mL, the MRT was determined as 2.4 ± 0.25 h and the Tmax came out at 1 h.
